Test results from patent US8952018B2, “Pharmaceutical combination of MEK inhibitor and B-Raf inhibitors” (GlaxoSmithKline LLC, priority 2009, dated 2015).
Like-named read-outs stand apart in the source and are kept apart here.

Assays:
Colo-205 = assay: Cell growth inhibition assay (Cell Titer Glo) and combination data analysis; assay type: cell-based; conditions: Homo sapiens, 72 h, Colon, BRAF_V600E, 3 days, mean ± std
Description: (§6) EOHSA values are defined as increases in improvement (here, in ‘percentage points’ (ppts) difference) produced by the combination over the best single agent at its component dose level for the combination. For single agent and combination treatments, cells were exposed to compounds at a fixed-dose-ratio, and dose response curves were fit to the experimental data and analyzed using regression models. […]

SW837 = assay: as above; assay type: cell-based; conditions: Homo sapiens, 72 h, Colon, KRAS_G12C, 3 days
LS-1034 = assay: as above; assay type: cell-based; conditions: Homo sapiens, 72 h, Colon, KRAS_A146T, 3 days
[1] = system: melanoma lines 12R8-3, 12R8-1, 12R5-3, and 16R6-3; assay: Cell growth inhibition assay, summary of Table 3; assay type: cell-based; conditions: Homo sapiens; range over 12R8-3, 12R8-1, 12R5-3, 16R6-3; read-out: IC50, single agent
16R6-3 = assay: Cell growth inhibition assay (Cell Titer Glo) and combination data analysis; assay type: cell-based; conditions: Homo sapiens, A375P-F11, 72 h, Melanoma, resistant clone of A375 PF11, BRAF_V600E, 3 days
Description: (§7) Cell growth inhibition assay and combination data analysis—All cells were cultured for a minimum of 72 hours prior to cell plating. Cells were assayed in a 96-well tissue culture plate (NUNC 136102) of RPMI medium containing 10% FBS for all cells at 1,000 cells per well. Approximately 24 hours after plating, cells were exposed to ten, three-fold serial dilutions of compound or the combination of the two agents at a constant molar to molar ratio of 1:10 Compound A (DMSO solvate) to Compound B (free form) in RPMI media containing 10% FBS. Concentrations tested for Compound A were 1 μM-0.05 nM and for Compound B were 10 μM-0.5 nM. […] ATP levels were determined by adding Cell Titer Glo® (Promega) according to the manufacturer's protocol. Briefly, Cell Titer Glo® was added each plate, incubated for 30 minutes then luminescent signal was read on the SpectraMax L plate reader with a 0.5 sec integration time.

SW1463 = assay: as above; assay type: cell-based; conditions: Homo sapiens, 72 h, Colon, KRAS_G12C, 3 days
Description: (§8) Cell growth inhibition assay and combination data analysis—All cells were cultured for a minimum of 72 hours prior to cell plating. Cells were assayed in a 96-well tissue culture plate (NUNC 136102) of RPMI medium containing 10% FBS for all cells at 1,000 cells per well. Approximately 24 hours after plating, cells were exposed to ten, three-fold serial dilutions of compound or the combination of the two agents at a constant molar to molar ratio of 1:10 Compound A (DMSO solvate) to Compound B (free form) in RPMI media containing 10% FBS. Concentrations tested for Compound A were 1 μM-0.05 nM and for Compound B were 10 μM-0.5 nM. Cells were incubated in the presence of compounds for 3 days. ATP levels were determined by adding Cell Titer Glo® (Promega) according to the manufacturer's protocol. Briefly, Cell Titer Glo® was added each plate, incubated for 30 minutes then luminescent signal was read on the SpectraMax L plate reader with a 0.5 sec integration time.

[2] = system: seven colon lines without BRAF V600E mutation (either with BRAF G596R or KRAS mutations); assay: Cell growth inhibition assay, summary of Table 3; assay type: cell-based; conditions: Homo sapiens
Description: (§1) A375 PF11 was derived from A375.
(§2) Cell growth inhibition assay and combination data analysis—All cells were cultured for a minimum of 72 hours prior to cell plating. […] Cells were incubated in the presence of compounds for 3 days. ATP levels were determined by adding Cell Titer Glo® (Promega) according to the manufacturer's protocol. Briefly, Cell Titer Glo® was added each plate, incubated for 30 minutes then luminescent signal was read on the SpectraMax L plate reader with a 0.5 sec integration time.
(§3) Inhibition of cell growth was estimated after treatment with compound or combination of compounds for three days and comparing the signal to cells treated with vehicle (DMSO). Cell growth was calculated relative to vehicle (DMSO) treated control wells.
(§4) In general, a CI value <0.9, between 0.9 and 1.1, or >1.1 indicates synergy, additivity and antagonism, respectively. In general, the smaller the Cl number, the greater is the strength of synergy.
(§5) EOHSA values are defined as increases in improvement (here, in ‘percentage points’ (ppts) difference) produced by the combination over the best single agent at its component dose level for the combination. For single agent and combination treatments, cells were exposed to compounds at a fixed-dose-ratio, and dose response curves were fit to the experimental data and analyzed using regression models. At specified total dose levels of IC50 along the dose response curve, the dose combination (corresponding to IC50) was determined for making EOHSA statistical inferences.

[3] = system: four colon cell lines with BRAF V600E mutation; assay: Cell growth inhibition assay, summary of Table 3; assay type: cell-based; conditions: Homo sapiens, read-out: IC50 values, single agent
Description: as §1, §2, §3, §4, §5

HCT-8 = assay: Cell growth inhibition assay (Cell Titer Glo) and combination data analysis; assay type: cell-based; conditions: Homo sapiens, 72 h, Colon, KRAS_G13D, 3 days
16R5-2 = assay: as above; assay type: cell-based; conditions: Homo sapiens, A375P-F11, 72 h, Melanoma, resistant clone of A375 PF11, BRAF_V600E, 3 days
Description: as §7

SW480 = assay: as above; assay type: cell-based; conditions: Homo sapiens, 72 h, Colon, KRAS_G12C, 3 days
12R5-1 = assay: as above; assay type: cell-based; conditions: Homo sapiens, A375P-F11, 72 h, Melanoma, resistant clone of A375 PF11, BRAF_V600E, 3 days
Description: as §7

HT-29 = assay: as above; assay type: cell-based; conditions: Homo sapiens, 72 h, Colon, BRAF_V600E, 3 days, mean ± std
Description: as §6

SW1417 = assay: as above; assay type: cell-based; conditions: Homo sapiens, 72 h, Colon, BRAF_V600E, 3 days, mean ± std
Description: as §6

12R8-3 = assay: as above; assay type: cell-based; conditions: Homo sapiens, A375P-F11, 72 h, Melanoma, resistant clone of A375 PF11, BRAF_V600E, 3 days
Description: as §8

NCI-H508 = assay: as above; assay type: cell-based; conditions: Homo sapiens, 72 h, Colon, BRAF_G596R, 3 days
A375PF11 = assay: as above; assay type: cell-based; conditions: Homo sapiens, A375P-F11, 72 h, Melanoma, BRAF_V600E, 3 days, mean ± std
Description: as §8

DLD1 = assay: as above; assay type: cell-based; conditions: Homo sapiens, DLD-1, 72 h, Colon, KRAS_G13D, 3 days
Description: as §6

[4] = system: melanoma lines 16R5-2, 16R6-4 and 12R5-1; assay: Cell growth inhibition assay, summary of Table 3; assay type: cell-based, human; conditions: 16R5-2, 16R6-4, 12R5-1; compound alone
Description: Cell lines and growth conditions—Human colon tumor lines, Colo-205, DLD-1, HCT-8, HT-29, LS-1034, NCI-H508, RKO, SW1417, SW1463, SW480 and SW837, and human melanoma line A375 were from ATCC. A375 PF11 was derived from A375.
Cell growth inhibition assay and combination data analysis—All cells were cultured for a minimum of 72 hours prior to cell plating. Cells were assayed in a 96-well tissue culture plate (NUNC 136102) of RPMI medium containing 10% FBS for all cells at 1,000 cells per well. […] ATP levels were determined by adding Cell Titer Glo® (Promega) according to the manufacturer's protocol. Briefly, Cell Titer Glo® was added each plate, incubated for 30 minutes then luminescent signal was read on the SpectraMax L plate reader with a 0.5 sec integration time.
Inhibition of cell growth was estimated after treatment with compound or combination of compounds for three days and comparing the signal to cells treated with vehicle (DMSO). Cell growth was calculated relative to vehicle (DMSO) treated control wells. […]
The combination effects on the response scale were quantified by Excess Over Highest Single Agent (EOHSA) based on the concept of nonlinear blending as described in detail by Peterson and Novick (2007) and Peterson (2010) [(2;3) [Peterson and Novick, 2007; Peterson, 2010]. […]

12R5-3 = assay: Cell growth inhibition assay (Cell Titer Glo) and combination data analysis; assay type: cell-based; conditions: Homo sapiens, A375P-F11, 72 h, Melanoma, resistant clone of A375 PF11, BRAF_V600E, 3 days
Description: as §8

16R6-4 = assay: as above; assay type: cell-based; conditions: Homo sapiens, A375P-F11, 72 h, Melanoma, resistant clone of A375 PF11, BRAF_V600E, 3 days
Description: as §7

12R8-1 = assay: as above; assay type: cell-based; conditions: Homo sapiens, A375P-F11, 72 h, Melanoma, resistant clone of A375 PF11, BRAF_V600E, 3 days
Description: as §8

RKO = assay: as above; assay type: cell-based; conditions: Homo sapiens, 72 h, Colon, BRAF_V600E, 3 days, mean ± std
Description: as §6

[5] = read-out: IC50 Single Agent Compound A
[6] = mean ± std, read-out: IC50 Single Agent Compound A
[7] = read-out: IC50 Single Agent Compound B

Work on `CC(=O)Nc1cccc(-n2c(=O)n(C3CC3)c(=O)c3c(Nc4ccc(I)cc4F)n(C)c(=O)c(C)c32)c1` [Compound A, N-{3-[3-cyclopropyl-5-(2-fluoro-4-iodo-phenylamino)6,8-dimethyl-2,4,7-trioxo-3,4,6,7-tetrahydro-2H-pyrido[4,3-d]pyrimidin-1-yl]phenyl}acetamide] yielded an IC50 (Colo-205; [5]) of 1 nM, an IC50 (SW837; [6]) of 93 ± 63 nM and an IC50 (LS-1034; [6]) of 11 ± 7 nM. For the same compound, the IC50 [1] was 58 to 109 nM, the IC50 (16R6-3; [6]) was 109 ± 22 nM and the IC50 (SW1463; [6]) was 5 ± 4 nM. The IC50 ([2]; six out of the seven colon lines without BRAF V600E mutation, read-out: IC50s, single agent) was 1 to 93 nM, the IC50 ([3]; range over the four colon cell lines with BRAF V600E mutation) was 1 to 25 nM and the IC50 (HCT-8; [6]) was 50 ± 11 nM. For the same compound, the IC50 (16R5-2; [5]) was greater than 1000 nM, the IC50 (SW480; [6]) was 42 ± 3 nM and the IC50 (12R5-1; [5]) was greater than 1000 nM. It also gave an IC50 (HT-29; [5]) of 1 ± 1 nM, an IC50 (SW1417; [5]) of 3 ± 2 nM and an IC50 (12R8-3; [6]) of 59 ± 37 nM. The IC50 (NCI-H508; [6]) was 10 ± 5 nM, the IC50 (A375PF11; [5]) was 1 nM and the IC50 (DLD1; [6]) was 557 ± 393 nM. The “sensitivity to single agent” value [4] was “resistant or insensitive”, the IC50 (12R5-3; [6]) was 92 ± 52 nM and the IC50 (16R6-4; [5]) was greater than 1000 nM. The IC50 (12R8-1; [6]) was 58 ± 30 nM and the IC50 (RKO; [5]) was 25 ± 7 nM.

For `CC(C)(C)c1nc(-c2cccc(NS(=O)(=O)c3c(F)cccc3F)c2F)c(-c2ccnc(N)n2)s1` [Compound B, N-{3-[5-(2-Amino-4-pyrimidinyl)-2-(1,1-dimethylethyl)-1,3-thiazol-4-yl]-2-fluorophenyl}-2,6-difluorobenzenesulfonamide], the IC50 (Colo-205; [7]) was 18 ± 13 nM, the IC50 (SW837; [7]) was greater than 10000 nM and the IC50 (LS-1034; [7]) was greater than 10000 nM. It also gave an IC50 [1] greater than 10000 nM, an IC50 (16R6-3; [7]) greater than 10000 nM and an IC50 (SW1463; [7]) greater than 10000 nM. The IC50 ([2]; read-out: IC50, single agent) was greater than 10000 nM, the IC50 [3] was 18 to 5650 nM and the IC50 (HCT-8; [7]) was greater than 10000 nM. The IC50 (16R5-2; [7]) was greater than 10000 nM, the IC50 (SW480; [7]) was greater than 10000 nM and the IC50 (12R5-1; [7]) was greater than 10000 nM. It also gave an IC50 (HT-29; [7]) of 22 ± 22 nM, an IC50 (SW1417; [7]) of 203 ± 15 nM and an IC50 (12R8-3; [7]) greater than 10000 nM. For the same compound, the IC50 (NCI-H508; [7]) was greater than 10000 nM, the IC50 (A375PF11; [7]) was 12 nM and the IC50 (DLD1; [7]) was greater than 10000 nM. The “sensitivity to single agent” value [4] was “resistant or insensitive”, the IC50 (12R5-3; [7]) was greater than 10000 nM and the IC50 (16R6-4; [7]) was greater than 10000 nM. For the same compound, the IC50 (12R8-1; [7]) was greater than 10000 nM and the IC50 (RKO; [7]) was 5650 ± 3900 nM.
